Patent publication US10144929B2, “Polypeptide inhibitors of Smad3 polypeptide activities” (Mayo Foundation for Medical Education and Research, priority 2016, dated 2018)

Experiments:
[1] = system: adenovirus-TGFβ models of pulmonary fibrosis; experiment: Adenovirus-TGFβ model of pulmonary fibrosis; type: in vivo, Mice; conditions: 1 mg/kg daily from day 21
Method: FIGS. 13A-C. Mice were infected with 1×10^8 pfu adenovirus particles expressing control (GFP) or active TGFβ by tracheal instillation. On day 21, all animals began daily treatment with either vehicle (methocel/saline) or 1 mg/kg of the indicated TAT polypeptide. (A) On days 21 and 35, peripheral blood oxygen was determined. (B and C) Mice were sacrificed on day 39 and processed for lung hydroxyproline content (B) or qPCR expression of the indicated genes (C) (CTGF, connective tissue growth factor; α-SMA, alpha smooth muscle actin; Col Iα1, collagen Iα1). For panels A-C, data reflect mean+/−SEM of n=8 and n=16 for adenovirus-GFP and adenovirus-TGFβ, respectively. *P<0.05, **P<0.001, ***P<0.0005.
Mice were infected with 1×10^8 pfu adenovirus particles expressing control (GFP) or active TGFβ by tracheal instillation. On day 21, all animals began daily treatment with either vehicle (methocel/saline) or 1 mg/kg of the indicated TAT polypeptide. On days 21 and 35, peripheral blood oxygen was determined. Mice were sacrificed on day 39 and processed for lung hydroxyproline content or qPCR expression of CTGF (connective tissue growth factor), α-SMA (alpha smooth muscle actin), and Col Iα1 (collagen Iα1).

[2] = system: Normal human lung fibroblasts (NHLF) or lung fibroblasts from idiopathic pulmonary fibrosis (IPF) patients; experiment: Profibrotic responses in human lung fibroblasts (F-actin, Western, qPCR); type: cell-based; conditions: TGFβ 5 ng/mL 24 hours
Method: FIGS. 11A-C. TAT-SH3-2 inhibits profibrotic responses in human lung fibroblasts. (A) Normal human lung fibroblasts (NHLF) or lung fibroblasts from idiopathic pulmonary fibrosis (IPF) patients were transduced with the indicated TAT polypeptide. TGFβ (5 ng/mL) or SB431542 (10 μM) was then added for an additional 24 hours. Images were obtained on a LSM510 confocal microscope following F-actin labeling with phalloidin-TRITC and DAPI nuclei staining. Scale bar: 10 μm. (B) Western analysis for the indicated polypeptides (α-SMA, alpha smooth muscle actin; CTGF, connective tissue growth factor; and GAPDH, glyceraldehyde phosphate dehydrogenase) subsequent to TAT polypeptide transduction and 24 hour treatment in the absence (−) or presence (+) of TGFβ (5 ng/mL) or SB431542 (10 μM). (C) NHLF or IPF fibroblasts were treated as in (A), and qPCR was performed as described herein. Results represent mean±SEM from three independent experiments. *P<0.05, **P<0.005, *** P<0.001.
Normal human lung fibroblasts (NHLF) or lung fibroblasts from idiopathic pulmonary fibrosis (IPF) patients were transduced with the indicated TAT polypeptide. TGFβ (5 ng/mL) or SB431542 (10 μM) was then added for an additional 24 hours. Images were obtained on a LSM510 confocal microscope following F-actin labeling with phalloidin-TRITC and DAPI nuclei staining. […]

[3] = Liver enzymes and inflammatory cells in blood of saline or BLM mice; type: in vivo, C57BL/6 mice; conditions: 1 mg/kg daily from day 14; blood at days 0, 14, 28
Method: (§1) FIG. 12. C57BL/6 mice received intratracheal instillation of saline or bleomycin (BLM). On day 14, all animals began daily treatment with either vehicle (methocel/saline) or 1 mg/kg of TAT-SH3-2. Blood samples were obtained at days 0, 14, and 28 from the facial vein of unanesthetized animals and assessed for effect on the indicated liver enzymes and inflammatory cells. Quantification of lymphocytes, monocytes, and neutrophils were measured using a VetScan HM5 Analyzer. Serum levels (U/L, units per liter; g/dL, grams per deciliter) of alkaline phosphatase (ALP), alanine aminotransferase (ALT), and albumin were determined using a Piccolo Xpress Chemistry analyzer. Data are presented as mean+/−SEM of n=5.
as §1, with “C57BL/6” for “FIG. 12. C57BL/6”, “analyzer.” for “analyzer. Data are presented as mean+/−SEM of n=5.”

CTS SSCT fibroblasts = experiment: TGF-β responsive gene expression in CTS subsynovial connective tissue fibroblasts (qRT-PCR); type: cell-based, human; conditions: 1.5 μM, 90 minutes pretreatment, 2 ng/mL TGF-β 24 hours
From the text: FIG. 8 is a graph plotting the expression of CTGF. TGFβ stimulated CTGF gene expression was examined in subsynovial connective tissue as in FIGS. 3D and 4B following addition of TAT-SH3-2 (SNX9 peptide) or TAT-SH3-2M (Control peptide). The results were normalized to control treatments without TGFβ.
FIG. 9 is a graph plotting the expression of PAI-1 by cells exposed to the indicated treatments. TGFβ stimulated PAI-1 gene expression was examined in subsynovial connective tissue as in FIG. 8.
Fibroblasts were harvested from CTS patient SSCT tissue (n=3) who had carpal tunnel release surgery as described elsewhere (Gingery et al., J. Orthop. Res., 32(11):1444-50 (2014)). The CTS SSCT fibroblasts were cultured in Minimum Essential Media (MEM) supplemented with 10% fetal bovine serum (FBS) and 1% antibiotic/antimycotic. […]
Total RNA was isolated gene expression was evaluated using quantitative real-time polymerase chain reaction (qRT-PCR) as described elsewhere (Gingery et al., J. Orthop. Res., 32(11):1444-50 (2014)). TGF-β responsive genes (connective tissue growth factor (CTGF) and plasminogen activator inhibitor-1 (PAI-1)) were evaluated with TATA binding protein as the housekeeping gene.
Statistical analysis of qRT-PCR gene expression was normalized to control, and significance was determined by unpaired Student's t-test for each gene. […]

Substance: TAT-SH3-2: TAT-SNX9(SH3) fusion polypeptide having SNX9 amino acids 21-51 (31 mer) (TVNEGEIITITNPDVGGGWLEGRNIKGERGL; left off: small tags and cut ends)
- lung function (peripheral blood oxygen) [1]: stabilized lung function
- profibrotic responses in human lung fibroblasts [2]: inhibited profibrotic responses
- inflammatory cell recruitment (lymphocytes, monocytes, neutrophils) [3]: no demonstrable effect
- murine liver enzymes (ALP, ALT, albumin) [3]: no demonstrable effect
- expression of PAI-1 (CTS SSCT fibroblasts): No significant differences
- CTGF gene expression (CTS SSCT fibroblasts; compared with vehicle, P<0.05): down regulated
